From patent publication US20210277009A1, “PRMT5 INHIBITORS” (Merck Sharp & Dohme Corp., priority 2018, published 2021)
Where two headings read alike, the source gives them in different places.

How the values were obtained:
[1] = test system: symmetric dimethylation of arginine (SDMA) of PRMT5 substrates in MCF-7 cells; assay: PRMT5 Cell Target Engagement (TE) Assay; type: cell-based; conditions: Homo sapiens, MCF7, 72 h, treated for 3 days, nuclear SDMA by high content imaging, top concentration 10000 nM
From the text: The PRMT5 TE assay is a biomarker assay for identifying compounds that inhibit symmetric dimethylation of arginine (SDMA) of PRMT5 substrates. The following substrates have been reported for PRMT5: histone H2A and H4 R3, Histone H3 R2, Histone H3 R8, spliceosome Sm proteins, ribosomal protein RPS10, p53, FEN1, nudeoplasmin, nucleolin, EGFR and EBNA. The assay will focus on detecting symmetrically dimethylated nuclear proteins using high content imaging technology. Detection of the expression of symmetrically dimethylated nuclear proteins is through a mixture of primary rabbit monoclonal antibodies to SDMA (CST 13222), which in turn recognized by an Alexafluor 488 dye-conjugated anti-rabbit IgG secondary antibody. The IN Cell Analyzer 2200 or Opera-Phenix measures nuclear Alexafluor 488 fluorescent dye intensity that is directly related to the level of expression of symmetrically dimethylated nuclear proteins at the single cell level. Nuclear AF488 dye intensities are compared to the mean value for DMSO treated cells (MIN) to report percent of inhibition for each compound-treated well.
In this assay, the cell potency (EC50) of each compound was determined from a ten point (1:3 serial dilution; top compound concentration of 10000 nM) titration curve using the following outlined procedure. Each well of a BD falcon collagen coated black/clear bottom 384-well plate was seeded with 4000 MCF-7 cells in 30 μl media and allowed to attach for 5 h. Media is ATCC-formulated Eagle's Minimum Essential Medium, Catalog No. 30-2003. To make the complete growth medium, the following components were added to the base medium: 0.01 mg/ml human recombinant insulin; fetal bovine serum to a final concentration of 10%. Additional 30 μl of media containing 2× compounds were added to each well. Cells were treated for 3 days in 37° C. CO2 incubator. On day 3, cells were fixed with Cytofix, permeablized with 0.4% Triton-X-100/Cytofix, and washed with D-PBS without Ca/Mg. Cells were blocked with Licor Odessey blocking reagent for 1 h at room temperature, followed by incubation with anti-SDMA (1:1000) antibody at 4° C. overnight. 1° antibody was removed, followed by three washings with DPBS without Ca/Mg and 0.05% Tween20. Hoechst (5 μg/ml), Cell Mask deep stain (1:2000) and Alexa488-conjugated goat anti-rabbit IgG (2 μg/mL) was added for 1 hour at room temperature. A final washing step (three washes) was performed before sealing plate for imaging on In Cell Analyzer 2200 or Opera-Phenix. Images from analyzer were uploaded to Columbus (at WP or BOS) for image analysis. IC50 values were determined by 4 parameters robust fit of percent fluorescence units vs. (Logic) compound concentrations.

[2] = target: T1, PRMT5-MEP50 enzyme complex (Homo sapiens, UniProt O14744); assay: PRMT5-MEP50 Enzyme Methylation Assay; type: biochemical
T1 construct: 1.25 nM of Full-length (FL)-PRMT5-MEP50 enzyme complex; made in house; host or cells: baculovirus-transfected Sf21 cells
Method: PRMT5-MEP50 biochemical assay is a direct measurement of the methylation activity of the enzyme complex on a short peptide substrate derived from the N-terminus of H4 histone. Methylation experiment is performed with recombinant PRMT5-MEP50 protein complex. The assessment of inhibitory effect of small molecules is measured by tire effectiveness of the compounds to inhibit tins reaction (EC50).
In this assay, the potency (EC50) of each compound was determined from a twenty-point (1:2 serial dilution; top compound concentration of 100000 nM) titration curve using the following outlined procedure. To each well of a white ProxiPlus 384 well-plate, 100 nL of compound (1% DMSO in final assay volume of 10 μL) was dispensed, followed by the addition of 8 μL of 1× assay buffer (50 mM Bicine pH 8.0, 1 mM DTT, 0.004% Tween20, 0.01% BSA) containing 1.25 nM of Full-length (FL)-PRMT5-MEP50 enzyme complex (recombinant proteins from baculovirus-transfected Sf21 cells: FL-PRMT5; MW=[…] and FL-MEP50; MW=38614) and 1 μL of 150 μM S-(5′-Adenosyl)-L-Methionine Chloride (SAM). Plates were sealed and placed in a 37° C. humidified chamber for a 60 minutes pre-incubation with compound. Subsequently, each reaction was initiated by the addition of 1 μL 1× assay buffer containing 750 nM biotinylated H4R3(Mel) peptide. The final reaction in each well of 10 μL consists of 1.0 nM PRMT5-MEP50, 75 nM biotinylated-peptide, and […] SAM. Methylation reactions were allowed to proceed for 150 minutes in a sealed plate at 37° C. Reactions were immediately quenched by the addition of 1 μL of 5% formic acid. Plates were then frozen and shipped to SAMDITM Tech Inc. to determine the percent conversion from H4R3(Mel) to H4R3(Me2). Dose-response curves were generated by plotting percent effect (% product conversion; Y-axis) vs. Log 10 compound concentrations (X-axis). EC50 values were determined by non-linear regression according to models for either sigmoidal (4 parameters) or biphasic (7 parameters) dose-response curves.

[3] = second EC50 of 7 parameters biphasic model, read-out: Enzyme Methylation Assay (EC50_2)
[4] = single EC50 from 4 parameters single site sigmoidal model, or first EC50 of 7 parameters biphasic model, 1.0 nM PRMT5-MEP50, H4R3(Me1) peptide, SAM, read-out: Enzyme Methylation Assay (EC50 or EC50_1)

T1 sequence (O14744 whole entry): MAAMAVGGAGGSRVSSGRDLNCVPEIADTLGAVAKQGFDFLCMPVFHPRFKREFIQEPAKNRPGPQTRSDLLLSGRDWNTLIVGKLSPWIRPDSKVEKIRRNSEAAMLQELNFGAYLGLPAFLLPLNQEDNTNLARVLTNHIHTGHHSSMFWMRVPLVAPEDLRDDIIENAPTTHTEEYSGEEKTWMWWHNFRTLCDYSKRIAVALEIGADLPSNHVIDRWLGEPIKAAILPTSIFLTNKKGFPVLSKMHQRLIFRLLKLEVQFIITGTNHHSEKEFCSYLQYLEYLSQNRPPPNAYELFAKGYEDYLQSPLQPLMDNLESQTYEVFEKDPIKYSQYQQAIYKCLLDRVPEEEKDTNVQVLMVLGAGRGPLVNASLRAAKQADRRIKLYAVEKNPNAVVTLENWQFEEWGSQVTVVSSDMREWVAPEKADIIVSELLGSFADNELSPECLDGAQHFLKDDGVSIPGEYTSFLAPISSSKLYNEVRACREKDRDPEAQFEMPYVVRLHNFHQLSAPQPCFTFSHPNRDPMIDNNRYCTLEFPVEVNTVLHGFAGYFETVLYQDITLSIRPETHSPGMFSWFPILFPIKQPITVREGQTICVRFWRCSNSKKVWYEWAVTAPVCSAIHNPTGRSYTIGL
T1 sequence (Q9BQA1 whole entry partner): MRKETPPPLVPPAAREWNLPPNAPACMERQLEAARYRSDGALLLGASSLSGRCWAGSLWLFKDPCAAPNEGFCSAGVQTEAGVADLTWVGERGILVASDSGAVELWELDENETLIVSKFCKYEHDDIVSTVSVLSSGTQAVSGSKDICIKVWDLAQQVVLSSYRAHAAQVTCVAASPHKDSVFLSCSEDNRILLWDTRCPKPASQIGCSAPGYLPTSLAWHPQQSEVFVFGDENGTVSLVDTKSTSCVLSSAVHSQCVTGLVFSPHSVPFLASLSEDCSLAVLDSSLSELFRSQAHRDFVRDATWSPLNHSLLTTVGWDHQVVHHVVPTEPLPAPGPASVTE

EC50 [1] [nM]	EC50 [2, 3] [nM]	EC50 [2, 4] [nM]	Structure (SMILES)
9.5	16.2	0.4	Nc1nc2cc(CC[C@H]3S[C@@H](n4cc(F)c5c(N)ncnc54)[C@H](O)[C@@H]3O)ccc2cc1Br [Example 37, (2R,3S,4R,5R)-2-(2-(2-amino-3-bromoquinolin-7-yl)ethyl)-5-(4-amino-5-fluoro-7H-pyrrolo[2,3-d]pyrimidin-7-yl)tetrahydrothiophene-3,4-diol]
7.2	–	0.5	Cc1nc(N)nc2c1ccn2[C@@H]1S[C@H](CCc2ccc3cc(Br)c(N)nc3c2)[C@@H](O)[C@H]1O [Example 38, (2R,3S,4R,5R)-2-(2-(2-amino-3-bromoquinolin-7-yl)ethyl)-5-(2-amino-4-methyl-7H-pyrrolo[2,3-d]pyrimidin-7-yl)tetrahydrothiophene-3,4-diol]
123	661	1.2	Cc1ncnc2c1ccn2[C@@H]1S[C@@H](CCc2ccc3cc(C(F)F)c(N)nc3c2)[C@@H](O)[C@H]1O [Example 41, (2S,3S,4R,5R)-2-(2-(2-amino-3-(difluoromethyl)quinolin-7-yl)ethyl)-5-(4-methyl-7H-pyrrolo[2,3-d]pyrimidin-7-yl)tetrahydrothiophene-3,4-diol]
2.4	–	0.8	Nc1nc2cc(CC[C@@H]3S[C@@H](n4ccc5c(N)ncnc54)[C@H](O)[C@@H]3O)ccc2cc1Cl [Example 42, (2S,3S,4R,5R)-2-(2-(2-amino-3-chloroquinolin-7-yl)ethyl)-5-(4-amino-7H-pyrrolo[2,3-d]pyrimidin-7-yl)tetrahydrothiophene-3,4-diol]
2.4	–	0.7	Nc1nc2cc(CC[C@H]3S[C@@H](n4ccc5c(N)ncnc54)[C@H](O)[C@@H]3O)ccc2cc1Cl [Example 43, (2R,3S,4R,5R)-2-(2-(2-amino-3-chloroquinolin-7-yl)ethyl)-5-(4-amino-7H-pyrrolo[2,3-d]pyrimidin-7-yl)tetrahydrothiophene-3,4-diol]
